Results on three compounds are retold here after ChEMBL document CHEMBL4706648, “Antitubercular 2-Pyrazolylpyrimidinones: Structure-Activity Relationship and Mode-of-Action Studies” (J Med Chem, 2021).

Data set [1] can be described thus: Intrinsic clearance in C57/BL6 mouse blood at 2 mg/kg, iv administered as bolus dose measured upto 24 hrs by LC-MS/MS analysis. Type of data set: ADME, organism-based. Particulars: in vivo.
Data set [2] is described as follows: AUC (0 to infinity) in C57/BL6 mouse blood at 20 mg/kg, po measured upto 24 hrs by LC-MS/MS analysis. Details: route oral, dose 20 mg/kg, time <=24. It counts as ADME, organism-based.
Data set [3] in a line: Protein binding in human plasma assessed as unbound fraction at 5 uM incubated for 1 hr at 37 degreeC and measured after 4 hrs by ultracentrifugation based LC-MS/MS analysis. Particulars: 5 h. It counts as ADME, cell-free.
The test system of data set [4] is Mycobacterium tuberculosis. In words: Bactericidal activity against Mycobacterium tuberculosis H37Rv assessed as reduction in CFU grown under middlebrook 7H9/OADC-Glycerol-Tween80 medium at 1 to 2 times MIC incubated for 7 days. Type of data set: functional. Particulars: time 7 day.
A short description of data set [5]: Metabolic stability in human liver microsomes assessed as parent compound remaining after 30 mins. It counts as ADME, Microsome. Particulars: 0.5 h. (In general: Liver microsomes are a subcellular fraction often used to study metabolism.)
Data set [6] is described as follows: Metabolic stability in mouse liver microsomes assessed as parent compound remaining after 30 mins. It counts as ADME, Microsome. Particulars: 0.5 h.
Data set [7] deals with CHO. In words: Cytotoxicity against CHO cells assessed as reduction in cell viability by MTT assay. It counts as cell-based. Particulars: Cricetulus griseus.
The nature of data set [8]: Drug metabolism in C57/BL6 mouse blood assessed as glucuronide metabolite formation by HPLC analysis. Type of data set: ADME, tissue-based.
Data set [9] can be described thus: Metabolic stability in rat liver microsomes assessed as parent compound remaining after 30 mins. Type of data set: ADME, Microsome. The conditions noted are these: 0.5 h.
Data set [10] in a line: Tmax in C57/BL6 mouse blood at 20 mg/kg, po measured upto 24 hrs by LC-MS/MS analysis. Type of data set: ADME, organism-based.
Data set [11] is described as follows: Kinetic solubility of compound at 200 uM at pH 7.4 measured after 20 hrs by HPLC-DAD analysis. It counts as physicochemical. Particulars: buffer, pH 7.4, 20 h.
The subject of data set [12] is Mycobacterium tuberculosis. In words: Antimycobacterial activity against wild-type Mycobacterium tuberculosis H37Rv assessed as inhibition of bacterial growth grown under middlebrook 7H9 medium incubated for 7 days by alamar blue broth microdilution method. The conditions noted are these: 168 h, time 7 day. It counts as functional. (In general: The colour change of resazurin is a common sign of viable cells or microbes.)

The nature of data set [13]: Total blood clearance in C57/BL6 mouse blood at 2 mg/kg, iv administered as bolus dose measured upto 24 hrs by LC-MS/MS analysis. It counts as ADME, organism-based.
A short description of data set [14]: Oral bioavailability in C57/BL6 mouse blood at 20 mg/kg measured upto 24 hrs by LC-MS/MS analysis. Type of data set: ADME, organism-based. Particulars: for bioavailability: C57/BL6, mouse, blood.
The test system of data set [15] is Mycobacterium tuberculosis. In words: Antimycobacterial activity against mmpL3 gene silenced Mycobacterium tuberculosis H37Rv assessed as inhibition of bacterial growth grown under middlebrook 7H9 medium incubated for 7 days by alamar blue broth microdilution method. The conditions noted are these: time 7.0 day. Type of data set: functional, organism-based.
Data set [16] is described as follows: Volume of distribution during elimination phase in C57/BL6 mouse blood at 2 mg/kg, iv administered as bolus dose measured upto 24 hrs by LC-MS/MS analysis. Type of data set: ADME, organism-based.
Data set [17] in a line: Aqueous solubility of compound at pH 7.4. Particulars: buffer. It counts as physicochemical.
Data set [18] in a line: Cmax in C57/BL6 mouse blood at 20 mg/kg, po measured upto 24 hrs by LC-MS/MS analysis. It counts as ADME, organism-based. Also noted: route oral, dose 20 mg/kg, time <=24.
Data set [19] can be described thus: AUC (0 to infinity) in C57/BL6 mouse blood at 2 mg/kg, iv administered as bolus dose measured upto 24 hrs by LC-MS/MS analysis. Type of data set: ADME, organism-based. The conditions noted are these: for AUC(0-inf): C57/BL6, mouse, blood. Details: route intravenous, dose 2 mg/kg, time <=24.
Data set [20] in a line: Cmax in C57/BL6 mouse blood at 2 mg/kg, iv administered as bolus dose measured upto 24 hrs by LC-MS/MS analysis. Type of data set: ADME, organism-based. Also noted: route intravenous, dose 2 mg/kg, time <=24.
A short description of data set [21]: Apparent half life in C57/BL6 mouse blood at 20 mg/kg, po measured upto 24 hrs by LC-MS/MS analysis. Type of data set: ADME, organism-based. The conditions noted are these: for half-life: C57/BL6, mouse, blood, read-out: t1/2(app) (converted).
Data set [22] is described as follows: Apparent half life in C57/BL6 mouse blood at 2 mg/kg, iv administered as bolus dose measured upto 24 hrs by LC-MS/MS analysis. It counts as ADME, organism-based. The conditions noted are these: for half-life: C57/BL6, mouse, blood, read-out: t1/2(app) (converted).
Data set [23] relates to Mycobacterium tuberculosis. Type of data set: functional. The conditions noted are these: H37Rv, 168 h, time 7 day.
Data set [24] concerns the target Voltage-gated inwardly rectifying potassium channel KCNH2 (Homo sapiens, UniProt Q12809). In words: Inhibition of human ERG.
The mark [25] stands for this setting: C57/BL6, mouse, blood, read-out: Tmax.
The mark [26] stands for this setting: C57/BL6, mouse, blood, read-out: Vd.

Molecules are shown by their SMILES. Values after ≈ are worked out from the molar mass of the structure shown. Active and inactive are the calls of the source. The rule behind the calls is not given here. A value given as a limit tells only on which side of the number the result lay.

Sequence of Voltage-gated inwardly rectifying potassium channel KCNH2 (Q12809 whole entry): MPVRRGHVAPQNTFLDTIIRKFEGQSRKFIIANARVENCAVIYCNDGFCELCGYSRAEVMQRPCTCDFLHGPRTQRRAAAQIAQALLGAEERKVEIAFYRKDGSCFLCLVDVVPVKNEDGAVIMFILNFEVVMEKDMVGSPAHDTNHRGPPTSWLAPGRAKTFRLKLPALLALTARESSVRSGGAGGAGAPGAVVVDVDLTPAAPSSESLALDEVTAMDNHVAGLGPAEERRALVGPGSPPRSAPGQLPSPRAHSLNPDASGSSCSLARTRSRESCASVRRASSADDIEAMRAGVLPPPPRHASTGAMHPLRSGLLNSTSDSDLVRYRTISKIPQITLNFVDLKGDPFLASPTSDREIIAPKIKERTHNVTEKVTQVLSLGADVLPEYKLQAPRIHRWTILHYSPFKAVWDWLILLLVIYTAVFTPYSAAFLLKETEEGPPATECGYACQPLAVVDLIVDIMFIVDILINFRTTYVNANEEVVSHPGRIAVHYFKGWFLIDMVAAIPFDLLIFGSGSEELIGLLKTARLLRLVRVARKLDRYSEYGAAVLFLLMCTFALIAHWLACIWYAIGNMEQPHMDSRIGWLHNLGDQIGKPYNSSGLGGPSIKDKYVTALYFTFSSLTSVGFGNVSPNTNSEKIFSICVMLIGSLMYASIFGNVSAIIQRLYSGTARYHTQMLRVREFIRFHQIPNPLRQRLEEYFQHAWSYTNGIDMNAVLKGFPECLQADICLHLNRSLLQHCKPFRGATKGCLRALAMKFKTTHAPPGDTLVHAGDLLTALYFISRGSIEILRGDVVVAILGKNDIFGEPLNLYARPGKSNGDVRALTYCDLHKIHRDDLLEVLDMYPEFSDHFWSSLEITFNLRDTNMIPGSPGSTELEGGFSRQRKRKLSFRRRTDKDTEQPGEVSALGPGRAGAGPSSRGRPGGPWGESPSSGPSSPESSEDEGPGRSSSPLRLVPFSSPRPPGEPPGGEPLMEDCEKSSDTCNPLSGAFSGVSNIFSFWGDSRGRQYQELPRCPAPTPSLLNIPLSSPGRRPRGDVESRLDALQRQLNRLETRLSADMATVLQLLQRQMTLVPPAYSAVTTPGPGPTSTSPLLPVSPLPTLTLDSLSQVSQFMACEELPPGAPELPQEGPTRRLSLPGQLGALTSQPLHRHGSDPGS

Take `CCNc1cc(C)nn1-c1nc(-c2cccnc2)cc(=O)[nH]1`: the CL in [1] is 2.04 L/h/kg. Also, the AUC(0-inf) in data set [2] is 1090 µM·h; in [19], 256 µM·h. For the same compound, the Fu in data set [3] is on record as 0.009. In addition, in data set [4], the Activity was determined as 2 log10CFU. The Stabilty in data set [5] amounted to 80%; in [6], 94%; in [9], 95%. Moreover, the concentration for half-maximal inhibition (IC50) in data set [7] is over 50 µM. For the same compound, the Drug metabolism entry in data set [8] is given as “Metabolite_Detected”. Further, the Tmax in data set [10] (setting [25]) was 1 h. The Kinetic_solubility in data set [11] was 90 µM. For the same compound, the MIC came to 5.8 µM (≈ 1.72 µg/mL) in [12] and 6.25 µM (≈ 1.85 µg/mL) in data set [23]. The clearance in data set [13] was 0.024 L/h/kg. In addition, the bioavailability in data set [14] amounted to 44%. Besides, in data set [15], the outcome was Active. For the same compound, the volume of distribution (Vd) in data set [16] (setting [26]) was 0.1 L/kg. In data set [17], this compound had a solubility of 90 µM (≈ 26.7 µg/mL). The maximum concentration (Cmax) worked out at 104 µM in data set [18] (C57/BL6, mouse, blood) and 33.1 µM in data set [20] (C57/BL6, mouse, blood). The half-life is 6.1 h in data set [21] and 4 h in data set [22].

For `Cc1cc(C)n(-c2nc(C(F)(F)F)cc(=O)[nH]2)n1`, the CL in data set [1] amounted to 28.6 L/h/kg. The IC50 in data set [24] was over 30 µM; in data set [7] it was 150 µM. For the same compound, the Fu in [3] turned out to be 0.006. Besides, in [4], the Activity is listed as 2 log10CFU. For the same compound, the Stabilty is given as over 99% in data set [5], over 99% in data set [6] and 92% in data set [9]. The Tmax in [10] (mouse, in vivo, 20 mg/kg, 24 h) came out at 0.5 h. In addition, in data set [11], the Kinetic_solubility is 200 µM. Besides, the values for the MIC in data set [12] and in data set [23] were 15 µM (≈ 3.87 µg/mL) and 12 µM (≈ 3.1 µg/mL), respectively. In data set [14] (mouse, in vivo, 20 mg/kg, 24 h), this compound registered an F of 41%. Also, the result in [15] was Active. In addition, the distribution volume (Vd) in [16] (mouse, in vivo, 2 mg/kg, 24 h) is 0.7 L/kg. The compound also displayed a solubility in data set [17] of 200 µM (≈ 51.6 µg/mL). Moreover, the Cmax in data set [18] (mouse, in vivo, 24 h) stood at 65.6 µM; in data set [20] (mouse, in vivo, 24 h) it was 29.1 µM. In addition, the AUC in data set [19] (mouse, in vivo, 24 h) amounted to 2928 µM·min. Moreover, the “t1/2(app)” value came to 4 h in [21] (mouse, in vivo, 20 mg/kg, 24 h) and 3.1 h in data set [22] (mouse, in vivo, 2 mg/kg, 24 h).

In turn, `Cc1cc(Nc2ccc(F)cc2)n(-c2nc(C(F)(F)F)cc(=O)[nH]2)n1` registered a CL in data set [1] of over 240 L/h/kg. Further, the AUC(0-inf) in data set [2] was 5.22 µM·h; in [19], 1.52 µM·h. The Fu in [3] was 0.013. Also, in data set [4], the Activity was found to be 2 log10CFU. The Stabilty was 98% in data set [5], 96% in data set [6] and 98% in data set [9]. In [7], the IC50 was found to be 20 µM. Further, the time of peak concentration (Tmax) in [10] (setting [25]) came out at 0.5 h. Also, the Kinetic_solubility in [11] came to 15 µM. Further, the values for the minimum inhibitory concentration (MIC) in data set [12] and in [23] were 1.2 µM (≈ 0.424 µg/mL) and 1.56 µM (≈ 0.551 µg/mL), respectively. In data set [13], the clearance was 4.85 L/h/kg. Also, the bioavailability in data set [14] is 33%. For the same compound, the outcome in data set [15] was Active. Also, the distribution volume (Vd) in data set [16] (setting [26]) was found to be 37.4 L/kg. Besides, the solubility in [17] came out at 15 µM (≈ 5.3 µg/mL). Also, the Cmax in [18] (C57/BL6, mouse, blood) was 2.9 µM; in data set [20] (C57/BL6, mouse, blood) it was 2.4 µM. Further, the half-life was 4.4 h in data set [21] and 5.6 h in data set [22].

As a reminder, the AUC(0-inf) is the area under the concentration-time curve extrapolated to infinity. Read a low AUC(0-inf) as low exposure. Usually IC50 stands for the concentration that inhibits the measured activity by half. In general, Tmax refers to the time from dosing to the highest level. The MIC is the lowest concentration found to suppress growth. In general, clearance refers to the rate of elimination divided by the concentration. High values mean efficient removal, low ones inefficient removal. The term bioavailability denotes dose-corrected exposure relative to a reference, in per cent. A high value points to much systemic uptake. Usually Vd stands for the apparent volume that relates the amount in the body to the concentration in plasma or blood. Broadly, the solubility is the dissolved amount per volume that the medium holds. A higher solubility goes with much dissolved substance. A word on the Cmax: it is the peak of the concentration-time curve. As usually defined, the AUC is concentration integrated over time. The low end stands for less exposure, the high end for more exposure.
